Results: patent publication US20050090498A1, “3-Quinolin-2(1h)-ylideneindolin-2-one derivative” (priority 2001, published 2005)

How the values were obtained:
[1] = system: Human umbilical vein endothelial cells (HUVEC), VEGF-stimulated; experiment: Test on the inhibition of VEGF-stimulated HUVEC growth ([3H]thymidine incorporation); format: cell-based; conditions: human recombinant VEGF 10 ng/ml
Protocol: Test method: (Cell culture) Human umbilical vein endothelial cells (HUVEC) were cultured using EGM-2 complete medium (Clonetics) which had been supplemented with additives (2% FBS, 0.4% FGF (fibroblast growth factor), 0.1% VEGF, 0.1% IGF-I (insulin like growth factor-I), 0.1% EGF (epidermal growth factor), 0.1% ascorbic acid, 0.1% GA-1000, 0.1% heparin and 0.04% hydrocortisone).
(Evaluation of compounds) HUVEC (10,000 cells/well) were inoculated into EGM-2 complete medium in a gelatin-coated 96 well plate (mfd. by IWAKI) and cultured overnight. After washing with a physiological phosphate buffer, the medium was exchanged with a low serum medium (Medium 199/0.1% FBS) and the culturing was continued for 24 hours. Each of the compounds to be evaluated was prepared as a 10 mM DMSO solution and diluted with the low serum medium. This was added to each well to a final concentration of from 0.001 to 10 μM. After 2 hours of the compound treatment, human recombinant VEGF (R & D Systems) was added to a final concentration of 10 ng/ml. After 18 hours, [^3H]thymidine (Amersham Pharmacia) was added in 5 μCi/well portions. After 4 hours, the reaction was terminated by adding 0.2% SDS in 50 μl/well portions, and the product was recovered on GF/C Unifilter (Packard). After adding 25 μl of Microscinti 20 (Packard), the radioactivity incorporated into the DNA trapped on the filter was measured using TopCount (Packard). The IC50 of the inhibitory activity of each compound was calculated as the 50% inhibition concentration (IC50 value) of each compound to be tested, by defining the incorporated amount of [^3H]thymidine at the time of VEGF addition as 100%, and its incorporated amount at the time of no addition of VEGF as 0%.

[2] = system: human colon tumor COLO 205; experiment: In vivo anti-tumor test using human colon tumor bearing nude mice; design: species or system female Balb/c nude mouse; conditions: COLO 205 bearing nude mice, oral once a day for 14 days, 10 or 30 mg/kg/day
Protocol: Test method: A total of 4×10^6 cells of a human colon tumor COLO 205 were administered under the dorsal side skin of each female Balb/c nude mouse. When the tumor volume reached 50 to 100 mm^3, each of the test compounds was orally administered once a day for 14 days. In addition, 0.5% methyl cellulose aqueous solution was orally administered to the control group. Calipers were used for the measurement of tumor diameter, and it was measured on the next day of the final administration. In this case, the tumor volume was calculated using the following calculation formula. Tumor volume=(width^2×length)/2

[3] = system: Human umbilical vein endothelial cells (HUVEC), VEGF-stimulated; experiment: Test on the inhibition of VEGF-stimulated HUVEC growth ([3H]thymidine incorporation); format: cell-based; conditions: human recombinant VEGF 10 ng/ml; remark: listed apart in the source
[4] = system: VEGF-dependent in vitro angiogenesis (endotherial vessel forming amount); experiment: In vitro angiogenesis inhibition test (KURABO angiogenesis kit, CD31 staining); format: cell-based; conditions: Homo sapiens, 312 h; 10 ng/ml VEGF, 13 days culture, anti-VEGF antibody as 0% control
Protocol: Test method: An angiogenesis assay kit (mfd. by KURABO was used. A medium prepared by adding 10 ng/ml of VGEF (R & D Systems) to the special medium attached to the kit used as the culture medium. Each test drug was prepared as a 10 mM DMSO solution and added to a final concentration of from 0.003 to 1 μM by diluting with the special medium. Amount of angiogenesis under a condition of not adding the test drug was used as the positive control, and a condition under which 25 μg/ml of an anti-VEGF antibody (Sigma) was added was used as the negative control. On the 4th, 7th and 10th days after commencement of the culturing, the test drug was prepared as described in the above and exchanged with the medium of each well. On the 13th day, fixation of the cell layer was carried out in accordance with the method attached to the kit. That is, fixation of cell layer was carried out by adding ice-cooled 70% ethanol after washing with a physiological phosphate buffer and then allowing to stand at room temperature for 30 minutes. […]
A endotherial vessel staining kit CD31 for staining (mfd. by KURABO) was used for the staining of the thus formed hollow organ. […] By importing the file preserved in the imaging software, the number of pixel obtained by threshold and measure commands was recorded. […]

Compound	IC50 [1] [nM]	tumor growth inhibition (tumor volume) versus control [2]	IC50 [3] [nM]	IC50 [4] [nM]
O=C1Nc2ccccc2C1=C1C=Cc2cc(CN3CCOCC3)ccc2N1 [Example 54]	29	inhibit the tumor growth with a significance for the control		
O=C1Nc2ccccc2C1=C1C=Cc2cc(OCCN3CCOCC3)ccc2N1 [Example 4, 3-[6-(2-morpholin-4-ylethoxy)quinolin-2(1H)-ylidene]indolin-2-one]		inhibit the tumor growth with a significance for the control	190	
CN1CCN(Cc2ccc3c(c2)C=CC(=C2C(=O)Nc4ccccc42)N3)CC1 [Example 132, 3-{6-[(4-methylpiperazin-1-yl)methyl]quinolin-2(1H)-ylidene}indolin-2-one]		inhibit the tumor growth with a significance for the control		
O=C1Nc2ccccc2C1=C1C=Cc2cc(CNCC3CCCO3)ccc2N1 (centres unmarked) [Example 111]	300	inhibit the tumor growth with a significance for the control		
CCN(CC)CCCc1ccc2c(c1)C=CC(=C1C(=O)Nc3ccccc31)N2 [Example 99]	130	inhibit the tumor growth with a significance for the control		
O=C1Nc2ccc(F)cc2C1=C1C=Cc2cc(OCCN3CCOCC3)ccc2N1 [Example 311]	240	inhibit the tumor growth with a significance for the control		
CN1CCN(C(=O)c2ccc3c(c2)C=CC(=C2C(=O)Nc4ccccc42)N3)CC1 [Example 148, 3-[6-(4-methylpiperazine-1-carbonyl)quinolin-2(1H)-ylidene]indolin-2-one]		inhibit the tumor growth with a significance for the control	74	
Cl.O=C1Nc2ccccc2C1=C1C=Cc2cc(CNCC3CCOCC3)ccc2N1 [Example 113]		inhibit the tumor growth with a significance for the control		
CCN1CCN(Cc2ccc3c(c2)C=CC(=C2C(=O)Nc4ccccc42)N3)CC1 [Example 134, 3-{6-[(4-ethylpiperazin-1-yl)methyl]quinolin-2(1H)-ylidene}indolin-2-one]		inhibit the tumor growth with a significance for the control		
CN1CCN(CCOc2ccc3c(c2)C=CC(=C2C(=O)Nc4ccccc42)N3)CC1 [Example 41]	120	inhibit the tumor growth with a significance for the control		
O=C1Nc2ccccc2C1=C1C=Cc2cc(CNC3CCOCC3)ccc2N1 [Example 115]		inhibit the tumor growth with a significance for the control		
O=C1Nc2ccccc2C1=C1C=Cc2ccccc2N1 [Compound A, 3-quinolin-2(1H)-ylideneindolin-2-one]			140	69
Nc1ccc2c(c1)C=CC(=C1C(=O)Nc3ccccc31)N2 [Example 10, 3-[6-aminoquinolin-2(1H)-ylidene]indolin-2-one]			990	
O=C(Nc1cccnc1)Nc1ccc2c(c1)C=CC(=C1C(=O)Nc3ccccc31)N2 [Example 16, 1-[2-(2-oxoindolin-3-ylidene)-1,2-dihydroquinolin-6-yl]-3-(pyridin-3-yl)urea]			110	
O=C1Nc2cc(F)ccc2C1=C1C=Cc2cc(OCCN3CCOCC3)ccc2N1 [Example 310]	310	inhibit the tumor growth with a significance for the control		
CC(=O)c1ccc2c(c1)NC(=O)C2=C1C=Cc2ccccc2N1 [Example 21, 6-acetyl-3-quinolin-2(1H)-ylideneindolin-2-one]			220	
O=C1Nc2cnc(Cl)nc2/C1=C1\C=Cc2ccccc2N1 [Example 361]			24	
CN1CCC(COc2ccc3c(c2)C=CC(=C2C(=O)Nc4ccccc42)N3)CC1 [Example 15, 3-{6-[(1-methylpiperidin-4-yl)methoxy]quinolin-2(1H)-ylidene}indolin-2-one]			320	
O=C1Nc2ccccc2C1=C1C=Cc2cc(CO)ccc2N1 [Example 14, 3-(6-hydroxymethylquinolin-2(1H)-ylidene)indolin-2-one]			300	
CCN(CC)CCOc1ccc2c(c1)C=CC(=C1C(=O)Nc3ccccc31)N2.O=C(O)CCC(=O)O [Example 44]	280	inhibit the tumor growth with a significance for the control		
O=C(CN1CCOCC1)Nc1ccc2c(c1)C=CC(=C1C(=O)Nc3ccccc31)N2 [Example 9, 2-morpholin-4-yl-N-[2-(2-oxoindolin-3-ylidene)-1,2-dihydroquinolin-6-yl]acetamide]			200	
CN(C)[C@H]1CCCC1Nc1ncc2c(n1)/C(=C1\C=Cc3ccccc3N1)C(=O)N2 (some centres unmarked) [Example 354]			140	
